System: Aqueous solubility in PBS, percent remaining
Assay: qHTS Assay for Inhibitors of Bacillus subtilis Sfp phosphopantetheinyl transferase (PPTase): Aqueous Solubility in PBS
Conditions: active compounds read high
Excerpt: The covalent attachment of a phosphopantetheinyl (4'-PP) arm to a variety of synthases and other proteins is a key posttranslational protein modification. The 4'-PP is installed on the proteins post-translationally from coenzyme A (CoA) on a conserved serine residue by action of phosphopantetheinyl transferase (PPTase) enzymes. Phosphopantetheinylation is essential for synthase activity, and removal of the PPTase gene precludes natural product synthesis in microorganisms, or in the case of fatty acid biosynthesis, renders the organism unviable. PPTase enzymes belong to a distinct structural superfamily. Within bacteria, these enzymes are grouped into two classes based upon primary structure, the AcpS-Type and Sfp-Type PPTases.
Sfp-type PPTases, corresponding to an activator of surfactin production in Bacillus subtilis, are responsible for modifying type I polyketide and nonribosomal peptide synthases of prokaryotes. Sfp-type PPTases are responsible for the activation of a variety of pathogen-associated virulence factors. […]
2microM of compound is incubated in PBS buffer at pH 7; the reference compound is procaine. Compounds are incubated at 37 deg C for the pre-determined time periods and the when aliquots are removed. Samples are analyzed with LC-MS/MS.

solubility, percent remaining: 100%
Structure (SMILES): COc1ccnc(NC(=S)N2CCN(c3ncc(C(F)(F)F)cc3Cl)CC2)c1

Reference: PubChem BioAssay AID624112 (National Center for Advancing Translational Sciences (NCATS), 2012)
